“Also recorded” adds a separate entry of the source.
Assays:
Format in all cases: cell-based, murine
[1] = test system: phosphorylation of MAPK (JNK, p38-MAPK, ERK) and p65 subunit of NF-κB; assay: Western blot of NF-κB p65 and MAPK phosphorylation after ODN2395 stimulation; conditions: RAW 264.7, 20 μM, ODN2395 stimulation 15 min and 30 min
Experimental: RAW 264.7 cells were seeded into a 60 mm cell culture dish at a density of 2×10^6 cells/dish, and treated with test compounds followed by TLR agonists. The cell lysate was harvested through mammalian protein extraction kit (M-PER; Thermo Fisher Scientific, Inc.) with the protease and phosphatase inhibitor cocktail (Thermo Fisher Scientific, Inc.), and the protein levels were quantified using a bicinchoninic acid assay (Sigma-Aldrich, Co.). Protein samples were separated by SDS-PAGE and transferred to nitrocellulose membranes (GE Healthcare, Inc., Chicago, IL, USA). The membranes were incubated with primary antibodies specific to phospho-JNK (Cell Signaling Technology, Inc., Danvers, MA, USA), phospho-ERK (Santa Cruz Biotechnology, Inc., Dallas, TX, USA), phospho-p38-MAPK (Cell Signaling Technology, Inc.), phospho-p65 (Cell Signaling Technology, Inc.), or β-actin (Santa Cruz Biotechnology, Inc.). […] Protein levels were confirmed using a chemiluminescent substrate (SuperSignal™ West Pico PLUS, Thermo Fisher Scientific, Inc.) and a luminescence detection system (Fusion Solo S, VILBER, France).
In general, MYD88 recruitment by TLRs triggers the activation of the transcription factor NF-κB as well as the cell proliferation factor MAPK. […]

TLR1/2 = biological target: T1, TLR1/2 (Mus musculus, UniProt Q9EPQ1+Q9QUN7); assay: TLR1/2-mediated TNF-α secretion (Pam3CSK4), ELISA; conditions: RAW 264.7, 10 or 20 μM
T1 construct: endogenous in cells; host or cells: RAW 264.7
T1 sequence (Q9EPQ1 26-795): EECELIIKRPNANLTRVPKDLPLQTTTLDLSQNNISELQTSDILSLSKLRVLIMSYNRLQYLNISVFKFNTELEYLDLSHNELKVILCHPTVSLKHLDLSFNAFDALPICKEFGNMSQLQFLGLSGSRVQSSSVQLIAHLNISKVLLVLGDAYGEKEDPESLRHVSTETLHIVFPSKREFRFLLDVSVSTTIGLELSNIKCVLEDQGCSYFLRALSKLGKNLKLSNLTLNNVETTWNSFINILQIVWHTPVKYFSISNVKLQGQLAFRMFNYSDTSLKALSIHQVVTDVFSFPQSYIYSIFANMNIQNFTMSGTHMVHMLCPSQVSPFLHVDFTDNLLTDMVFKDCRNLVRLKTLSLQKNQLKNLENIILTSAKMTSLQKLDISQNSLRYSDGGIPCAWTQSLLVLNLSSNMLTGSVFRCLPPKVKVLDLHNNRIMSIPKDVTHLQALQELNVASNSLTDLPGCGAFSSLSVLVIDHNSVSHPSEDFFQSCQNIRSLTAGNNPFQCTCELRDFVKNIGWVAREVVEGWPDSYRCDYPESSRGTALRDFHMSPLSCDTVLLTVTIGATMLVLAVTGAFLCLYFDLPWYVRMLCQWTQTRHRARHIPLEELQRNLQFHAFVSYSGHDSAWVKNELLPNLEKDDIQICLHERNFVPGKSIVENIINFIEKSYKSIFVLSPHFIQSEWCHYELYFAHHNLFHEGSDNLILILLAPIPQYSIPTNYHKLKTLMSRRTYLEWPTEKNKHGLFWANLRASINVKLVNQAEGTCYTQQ
T1 sequence (Q9QUN7 25-784): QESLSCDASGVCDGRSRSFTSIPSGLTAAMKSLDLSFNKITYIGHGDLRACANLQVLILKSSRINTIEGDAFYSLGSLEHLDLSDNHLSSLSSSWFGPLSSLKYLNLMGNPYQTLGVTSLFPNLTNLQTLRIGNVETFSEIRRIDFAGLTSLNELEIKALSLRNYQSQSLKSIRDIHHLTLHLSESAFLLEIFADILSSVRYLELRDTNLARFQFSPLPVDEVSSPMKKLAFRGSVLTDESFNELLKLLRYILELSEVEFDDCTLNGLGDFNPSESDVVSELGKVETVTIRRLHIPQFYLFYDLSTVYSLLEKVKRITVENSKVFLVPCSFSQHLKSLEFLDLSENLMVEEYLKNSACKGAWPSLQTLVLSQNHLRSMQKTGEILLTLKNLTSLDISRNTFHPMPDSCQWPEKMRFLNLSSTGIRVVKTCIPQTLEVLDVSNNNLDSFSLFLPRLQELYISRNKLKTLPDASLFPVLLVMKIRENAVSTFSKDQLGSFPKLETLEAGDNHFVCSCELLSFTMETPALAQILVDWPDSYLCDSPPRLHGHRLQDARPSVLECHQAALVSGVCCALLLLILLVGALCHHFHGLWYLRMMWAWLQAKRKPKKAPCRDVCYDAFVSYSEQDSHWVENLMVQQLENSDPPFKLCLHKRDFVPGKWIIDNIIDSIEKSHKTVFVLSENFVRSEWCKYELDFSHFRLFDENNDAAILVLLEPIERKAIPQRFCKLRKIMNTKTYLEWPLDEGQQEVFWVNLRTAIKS
Experimental: (§1) Agonists specific to TLR1/TLR2 (Pam3CSK4), TLR2/TLR6 (FSL-1), TLR3 (Poly I:C), TLR7 (imiquimod), and TLR8 (TL8-506) were purchased from InvivoGen Ltd. (Hong-Kong, China), and a TLR4-specific agonist (LPS from E. coli O111:B4) was purchased from Sigma-Aldrich, Inc. For TLR9-specific stimulation, class C CpG-ODN (ODN2395, 5′-TCGTCGTTTTCGGCGCGCGCCG-3′) having full phosphorothioate backbone modification was synthesized (Bioneer, Inc., Daejeon, Korea). All TLR agonists were dissolved in deionized water and applied to a culture media for TLR activation. The cells were treated with test compounds or a control medium for 1 hour, and then stimulated with a TLR agonist for 4 hours, or 24 hours in the case of poly(I:C), and the cytokine secretion was monitored.
RAW 264.7 or differentiated THP-1 cell lines were seeded onto a 96-well culture plate at a density of 2×10^4 cells/well. The cells were treated with test compounds for 1 hour followed by the stimulation with TLR agonists for 4 hours. The supernatant was transferred to pre-coated assay plates, and the secretion levels of mouse and human TNF-α were measured by respective ELISA kits (Invitrogen, Carlsbad, CA, USA). […] Absorbance was measured by a microplate reader spectrophotometer (Molecular Devices, Inc., San Jose, CA, USA), and data was interpolated from a standard curve using SoftMax Pro 5.3 software (Molecular Devices, Inc.). […]

TLR7 = biological target: T2, TLR7 (Mus musculus, UniProt P58681); assay: TLR7-mediated TNF-α secretion (imiquimod stimulation), ELISA
T2 construct: endogenous in cells; host or cells: RAW 264.7
T2 sequence (P58681 27-1050): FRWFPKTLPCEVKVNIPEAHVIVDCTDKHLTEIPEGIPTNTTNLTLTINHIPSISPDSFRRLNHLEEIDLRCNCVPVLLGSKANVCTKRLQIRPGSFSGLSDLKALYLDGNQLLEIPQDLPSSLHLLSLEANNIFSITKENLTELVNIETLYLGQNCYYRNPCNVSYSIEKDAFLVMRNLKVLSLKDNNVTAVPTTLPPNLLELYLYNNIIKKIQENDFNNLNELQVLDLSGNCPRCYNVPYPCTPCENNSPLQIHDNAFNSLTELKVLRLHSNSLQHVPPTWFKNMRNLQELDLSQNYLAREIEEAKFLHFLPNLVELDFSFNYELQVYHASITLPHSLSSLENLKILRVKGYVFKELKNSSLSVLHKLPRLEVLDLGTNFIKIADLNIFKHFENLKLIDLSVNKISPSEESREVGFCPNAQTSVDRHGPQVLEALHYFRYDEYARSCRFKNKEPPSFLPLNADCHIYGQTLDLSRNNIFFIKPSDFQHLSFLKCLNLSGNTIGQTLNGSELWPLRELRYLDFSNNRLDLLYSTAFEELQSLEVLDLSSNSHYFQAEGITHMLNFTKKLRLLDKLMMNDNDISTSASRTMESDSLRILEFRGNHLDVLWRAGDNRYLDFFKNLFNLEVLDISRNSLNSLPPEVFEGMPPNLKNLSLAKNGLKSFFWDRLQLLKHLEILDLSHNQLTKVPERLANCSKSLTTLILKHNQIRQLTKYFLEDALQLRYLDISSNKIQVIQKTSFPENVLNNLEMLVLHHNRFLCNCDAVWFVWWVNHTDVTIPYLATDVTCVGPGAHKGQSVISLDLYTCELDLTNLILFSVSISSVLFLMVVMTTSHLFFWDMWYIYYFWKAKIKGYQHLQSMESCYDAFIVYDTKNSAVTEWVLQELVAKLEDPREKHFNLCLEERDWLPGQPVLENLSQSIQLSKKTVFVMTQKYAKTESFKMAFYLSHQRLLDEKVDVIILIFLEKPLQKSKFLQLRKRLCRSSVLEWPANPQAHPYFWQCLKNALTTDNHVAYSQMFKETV
Experimental: as §1
RAW 264.7 or differentiated THP-1 cell lines were seeded onto a 96-well culture plate at a density of 2×10^4 cells/well. The cells were treated with test compounds for 1 hour followed by the stimulation with TLR agonists for 4 hours. The supernatant was transferred to pre-coated assay plates, and the secretion levels of mouse and human TNF-α were measured by respective ELISA kits (Invitrogen, Carlsbad, CA, USA). All experiments were performed according to the manufacturer's instructions. Absorbance was measured by a microplate reader spectrophotometer (Molecular Devices, Inc., San Jose, CA, USA), and data was interpolated from a standard curve using SoftMax Pro 5.3 software (Molecular Devices, Inc.).
In order to evaluate the antagonistic effect of each compound on TLR7/TLR9 through ELISA (enzyme-linked immunosorbent assay), RAW 264.7 cells were pretreated with the eight compounds followed by the stimulation with a TLR7-specific agonist (imiquimod, 3.61 μM) or with a TLR9-specific agonist (ODN2395, 0.5 μM). […] Since the two ligands had no agonistic effect per se (FIG. 3B), the increased cytokine production may be due to cell activation (or non-specific cellular stress) by co-treatment. Consequently, TIC10 was selected as the most suitable lead for further optimization to improve the inhibitory potency against both TLR7 and TLR9.

effect on TLR1/2-mediated cytokine (TNF-α) production (TLR1/2): no effect
TLR7-mediated TNF-α secretion (TLR7; RAW 264.7, 10 or 20 μM, imiquimod (receptor specificity, FIG. 6)): moderately reduced
IC50 (TLR7; RAW 264.7, imiquimod (FIG. 4D)): 6.79 µM
SMILES: COc1ccc(CNc2ncc(-c3ccc4c(c3)OCO4)n2C)c(OC)c1 [TIC10-7, 5-(2H-1,3-benzodioxol-5-yl)-N-[(2,4-dimethoxyphenyl)methyl]-1-methyl-1H-imidazol-2-amine]
phosphorylation of MAPK (JNK, p38-MAPK, and ERK) and the p65 subunit of NF-κB [1]: blocked the robust phosphorylation
inhibitory efficacy on TLR7-mediated TNF-α secretion (TLR7; RAW 264.7, 10 or 50 μM, imiquimod (FIG. 4B)): improved inhibitory efficacy compared to TIC10; also recorded: to a greater extent as compared to the other derivatives
